The supplement of paper PMC3974653
Structures can show the parent of a compound that is named as a salt.

Each molecule was assayed on MTT (mouse pheochromocytoma) (assay: IC50 of cell viability (ATP content)). Settings: (24 or 48 h).
Outline: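 Each well of a white 1536-well plate received 5 µl of MTT mouse pheochromocytoma cells at 200,000 cells/ml in DMEM containing 5% FBS and 1% horse serum. After overnight culture at 37°C, 5% CO2, cells were exposed for 24 or 48 hrs to 23 nl of library compound in DMSO, pinned at 8 final concentrations from 0.5 nM to 46 µM. CellTiter-Glo luminescence was read after 15 minutes, and IC50 was obtained from a four-parameter logistic fit of signals normalised to positive-control and DMSO wells.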
With O=C(c1ccc(OCCN2CCCCC2)cc1)c1c(-c2ccc(O)cc2)sc2cc(O)ccc12 [Raloxifene hydrochloride] the “IC50 of cell viability” value was over 46 µM.
CN\1C(=O)C(=C(\N=C1C(C)(C)NC(=O)C2=NN=C(C)O2)C(=O)NCC3=CC=C(F)C=C3)/O [Raltegravir] was tested, and the “IC50 of cell viability” value was over 46 µM.
In the case of CN(CC1=CC2=C(N\C(=N/C2=O)C)C=C1)C3=CC=C(S3)C(=O)N[C@@H](CCC(O)=O)C(O)=O [Raltitrexed], the “IC50 of cell viability” value was over 46 µM.
For CCOC(=O)[C@H](CCc1ccccc1)N[C@@H](C)C(=O)N1[C@@H](C(=O)O)C[C@H]2CCC[C@@H]21 [Ramipril], the “IC50 of cell viability” value was over 46 µM.
With CCOc1ccccc1OC(c1ccccc1)C1CNCCO1 (centres undefined) [Reboxetine mesylate] the “IC50 of cell viability” value was over 46 µM.
CC(Cc1ccccc1)(NC(=O)CN)c1ccccc1 (centres undefined) [Remacemide hydrochloride] was tested, and the “IC50 of cell viability” value was over 46 µM.
For CCOc1cc(CC(=O)N[C@@H](CC(C)C)c2ccccc2N2CCCCC2)ccc1C(=O)O [Repaglinide], the “IC50 of cell viability” value was over 46 µM.
In the case of COC(=O)[C@@H]1[C@H]2C[C@H]3c4[nH]c5cc(OC)ccc5c4CCN3C[C@@H]2C[C@@H](OC(=O)/C=C\c2cc(OC)c(OC)c(OC)c2)[C@@H]1OC [Rescinnamin], the “IC50 of cell viability” value was over 46 µM.
COC(=O)[C@H]1[C@H]2C[C@@H]3c4[nH]c5cc(OC)ccc5c4CCN3C[C@H]2C[C@@H](OC(=O)c2cc(OC)c(OC)c(OC)c2)[C@@H]1OC [Reserpine] was tested, and the “IC50 of cell viability” value was over 46 µM.
For Oc1cccc(O)c1 [Resorcinol], the “IC50 of cell viability” value was over 46 µM.
In the case of Oc1ccc(/C=C\c2cc(O)cc(O)c2)cc1 [Resveratrol], the “IC50 of cell viability” value was over 46 µM.
In the case of CC1=C(/C=C/C(C)=C/C=C/C(C)=C/CO)C(C)(C)CCC1 [Retinol], the “IC50 of cell viability” value was over 46 µM.
With CC(=O)OC/C=C(C)/C=C/C=C(C)/C=C/C1=C(C)CCCC1(C)C [Retinyl acetate] the “IC50 of cell viability” value was over 46 µM.
For CCCCCCCCCCCCCCCC(=O)OC/C=C(C)/C=C/C=C(C)/C=C/C1=C(C)CCCC1(C)C [Retinyl palmitate], the “IC50 of cell viability” value was over 46 µM.
With CCCCCCC(O)C/C=C\CCCCCCCC(=O)O (centres undefined) [Ricinoleic acid] the “IC50 of cell viability” value was over 46 µM.
CO[C@H]1/C=C/O[C@@]2(C)Oc3c(C)c(O)c4c(c3C2=O)C2=NC3(CCN(CC(C)C)CC3)NC2=C(NC(=O)/C(C)=C\C=C\[C@H](C)[C@H](O)[C@@H](C)[C@@H](O)[C@@H](C)[C@H](OC(C)=O)[C@@H]1C)C4=O [Rifabutin] was tested, and the “IC50 of cell viability” value was over 46 µM.
In the case of CC(N)C12CC3CC(CC(C3)C1)C2 (centres undefined) [Rimantadine hydrochloride], the “IC50 of cell viability” value was over 46 µM.
For CCC(=O)[C@@]1(C)[C@H](C)C[C@@H]2[C@@H]3CC\C4=C\C(=O)\C=C/[C@@]4(C)[C@H]3[C@H](O)C[C@@]12C [Rimexolone], the “IC50 of cell viability” value was over 46 µM.
With CCCCCOc1ccc(C2SC(=O)NC2=O)cc1OCC (centres undefined) [Risarestat] the “IC50 of cell viability” value was over 46 µM.
With CCCOC(=O)c1ccc(N)cc1 [Risocaine] the “IC50 of cell viability” value was over 46 µM.
In the case of CC/1=C(\CCN2CCC(CC2)=C(C3=CC=C(F)C=C3)C4=CC=C(F)C=C4)C(=O)N/5\C=C/SC5=N1 [Ritanserin], the “IC50 of cell viability” value was over 46 µM.
With C[C@H](NCCc1ccc(O)cc1)[C@@H](O)c1ccc(O)cc1 [Ritodrine hydrochloride] the “IC50 of cell viability” value was over 46 µM.
With CC(C)c1nc(CN(C)C(=O)NC(C(=O)NC(Cc2ccccc2)CC(O)C(Cc2ccccc2)NC(=O)OCc2cncs2)C(C)C)cs1 (centres undefined) [Ritonavir] the “IC50 of cell viability” value was over 46 µM.
With CC(C)c1nc(CN(C)C(=O)N[C@H](C(=O)N[C@@H](Cc2ccccc2)C[C@H](O)[C@H](Cc2ccccc2)NC(=O)OCc2cncs2)C(C)C)cs1 [Ritonavir] the “IC50 of cell viability” value was over 46 µM.
Cc1cccc(C)c1N(CCCc1cccnc1)C(=O)[C@@H](C)N [Ro 22-9194] was tested, and the “IC50 of cell viability” value was over 46 µM.
In the case of c1ccc(C2(N3CCCC3)CCCCC2)cc1 [Rolicyclidine], the “IC50 of cell viability” value was over 46 µM.
With COc1ccc([C@@H]2CNC(=O)C2)cc1OC1CCCC1 [Rolipram] the “IC50 of cell viability” value was over 46 µM.
CN(C)[C@@H]\1[C@@H]2C[C@H]3\C(=C(\O)[C@@]2(O)C(=O)\C(=C1O)C(=O)NCN4CCCC4)C(=O)C5=C(C=CC=C5O)[C@@]3(C)O [Rolitetracycline] was tested, and the “IC50 of cell viability” value was over 46 µM.
In the case of Cc1nc(-c2ccc(Cl)cc2)oc1COC(C)(C)C(=O)O [Romazarit], the “IC50 of cell viability” value was over 46 µM.
CC(=O)O[C@H](C)OC(=O)[C@@H](C)c1ccc(-c2ccccc2)c(F)c1 [Ropiopn] was tested, and the “IC50 of cell viability” value was over 46 µM.
With CC[C@H]1OC(=O)C[C@@H](O)[C@H](C)[C@@H](O[C@@H]2O[C@H](C)C[C@H](N(C)C)[C@@H]2O)[C@@H](CC=O)C[C@@H](C)C(=O)/C=C\[C@]2(C)O[C@H]2[C@@H]1C [Rosaramicin] the “IC50 of cell viability” value was over 46 µM.
In the case of O=C([O-])c1c(Cl)c(Cl)c(Cl)c(Cl)c1-c1c2cc(I)c(=O)c(I)c-2oc2c(I)c([O-])c(I)cc12 [Rose Bengal sodium], the “IC50 of cell viability” value was over 46 µM.
With O=[N+]([O-])c1cc([As](=O)(O)O)ccc1O [Roxarsone] the “IC50 of cell viability” value was over 46 µM.
In the case of OC1=CC2=C([NH]C=C2CCCCN3CC\C(=C/C3)C4=CC=CC=C4)C=C1 [Roxindole hydrochloride], the “IC50 of cell viability” value was over 46 µM.
For CC[C@@H]1OC(=O)[C@H](C)[C@H](O[C@H]2C[C@](C)(OC)[C@H](O)[C@H](C)O2)[C@H](C)[C@H](O[C@@H]2O[C@@H](C)C[C@@H](N(C)C)[C@H]2O)[C@](C)(O)C[C@H](C)/C(=N/OCOCCOC)[C@H](C)[C@H](O)[C@]1(C)O [Roxithromycin], the “IC50 of cell viability” value was over 46 µM.
For CC[C@H]1OC(=O)[C@H](C)[C@@H](OC2CC(C)(OC)C(O)C(C)O2)[C@H](C)[C@@H](OC2OC(C)CC(N(C)C)C2O)[C@](C)(O)C[C@@H](C)/C(=N\OCOCCOC)[C@H](C)[C@@H](O)[C@]1(C)O (some centres undefined) [Roxithromycin], the “IC50 of cell viability” value was over 46 µM.
For C[C@@H]1O[C@@H](OC[C@H]2O[C@@H](Oc3c(-c4ccc(O)c(O)c4)oc4cc(O)cc(O)c4c3=O)[C@H](O)[C@@H](O)[C@@H]2O)[C@H](O)[C@H](O)[C@H]1O [Rutin], the “IC50 of cell viability” value was over 46 µM.
For C[C@H](N)C(=O)c1ccccc1 [S(-)-Cathinone hydrochloride], the “IC50 of cell viability” value was over 46 µM.
In the case of CCN(CC)C(=O)N[C@@H]1C=C2c3cccc4[nH]cc(c34)C[C@H]2N(C)C1 [S(-)-LISURIDE], the “IC50 of cell viability” value was over 46 µM.
In the case of CCN1CCC[C@H]1CNC(=O)c1c(O)c(Cl)cc(Cl)c1OC [S(-)-RACLOPRIDE], the “IC50 of cell viability” value was over 46 µM.
In the case of CCc1cc(Cl)c(OC)c(C(=O)NC[C@H]2CCCN2CC)c1O [S(-)Eticlopride hydrochloride], the “IC50 of cell viability” value was over 46 µM.
CN[C@H](C)Cc1ccccc1 [S-(+)-Methamphetamine] was tested, and the “IC50 of cell viability” value was over 46 µM.
C=CCC1([C@@H](C)CCC)C(=O)NC(=O)NC1=O [S-(-)-Secobarbital] was tested, and the “IC50 of cell viability” value was over 46 µM.
With CCOC(=O)/C=C(C)/C=C/CC(C)CCCC(C)C (centres undefined) [S-HYDROPRENE] the “IC50 of cell viability” value was over 46 µM.
For CC(/C=C/C=C(\C)C(=O)O[C@@H]1O[C@H](CO[C@@H]2O[C@H](CO)[C@@H](O)[C@H](O)[C@H]2O)[C@@H](O)[C@H](O)[C@H]1O)=C\C=C\C=C(C)\C=C\C=C(/C)C(=O)O[C@@H]1O[C@H](CO[C@@H]2O[C@H](CO)[C@@H](O)[C@H](O)[C@H]2O)[C@@H](O)[C@H](O)[C@H]1O [SAFFRON], the “IC50 of cell viability” value was over 46 µM.
With CC(CCc1ccc2c(c1)OCO2)NN (centres undefined) [SAFRAZINE HYDROCHLORIDE] the “IC50 of cell viability” value was over 46 µM.
CC(C)(C)NCC(O)c1ccc(O)c(CO)c1 (centres undefined) [SALBUTAMOL] was tested, and the “IC50 of cell viability” value was over 46 µM.
OCc1ccccc1O [SALICYL ALCOHOL] was tested, and the “IC50 of cell viability” value was over 46 µM.
NC(=O)c1ccccc1O [SALICYLAMIDE] was tested, and the “IC50 of cell viability” value was over 46 µM.
For O=C(Oc1ccccc1C(=O)O)c1ccccc1O [SALSALATE], the “IC50 of cell viability” value was over 46 µM.
Cl.OC(=O)C/1=C/N(C2=CC=C(F)C=C2)C3=C(C=C(F)C(=C3)N4CCNCC4)C1=O [SARAFLOXACIN HYDROCHLORIDE] was tested, and the “IC50 of cell viability” value was over 46 µM.
CNCC(=O)NC(CCCNC(=N)N)C(=O)NC(C(=O)NC(Cc1ccc(O)cc1)C(=O)NC(C(=O)NC(Cc1cnc[nH]1)C(=O)N1CCCC1C(=O)NC(C)C(=O)O)C(C)C)C(C)C (centres undefined) [SARALASIN ACETATE] was tested, and the “IC50 of cell viability” value was over 46 µM.
For COc1cccc(CCc2ccccc2OCC(CN(C)C)OC(=O)CCC(=O)O)c1 (centres undefined) [SARPOGRELATE HYDROCHLORIDE], the “IC50 of cell viability” value was over 46 µM.
In the case of Cc1ccccc1/N=N/c1ccc(/N=N/c2c(O)ccc3ccccc23)c(C)c1 [SCARLET RED], the “IC50 of cell viability” value was over 46 µM.
With C=C1CC[C@H](O)C/C1=C/C=C1\CCC[C@]2(C)[C@@H]([C@H](C)CC[C@@H](O)C(C)(C)O)CC[C@@H]12 [SECALCIFEROL] the “IC50 of cell viability” value was over 46 µM.
Cc1ncc([N+](=O)[O-])n1CC(C)O (centres undefined) [SECNIDAZOLE] was tested, and the “IC50 of cell viability” value was over 46 µM.
For O=C/1O[C@@]23CC(/C=C\C2=C1)N4CCCCC34 (some centres undefined) [SECURININE], the “IC50 of cell viability” value was over 46 µM.
For COC1CC(O[C@H]2/C(C)=C/CC3CC(C[C@]4(CCC(C)C(C5CCCCC5)O4)O3)OC(=O)[C@H]3C=C(C)/C(=N/O)C4OC/C(=C\C=C\[C@@H]2C)[C@@]43O)OC(C)C1O (some centres undefined) [SELAMECTIN], the “IC50 of cell viability” value was over 46 µM.
In the case of Oc1ccc([C@H]2CNCc3c2ccc(O)c3O)cc1O [SELANDOPAM HYDROCHLORIDE HYDRATE (ZELANDOPAM)], the “IC50 of cell viability” value was over 46 µM.
For C[Se]CC[C@H](N)C(=O)O [SELENOMETHIONINE, L-], the “IC50 of cell viability” value was over 46 µM.
C[Se]CCC(N)C(=O)O (centres undefined) [SELENOMETHIONINE, SE-75] was tested, and the “IC50 of cell viability” value was over 46 µM.
Cc1cc(C)c(/C=C2\C(=O)Nc3ccccc32)[nH]1 [SEMAXANIBUM] was tested, and the “IC50 of cell viability” value was over 46 µM.
With CC1CCC(NC(=O)N(CCCl)N=O)CC1 (centres undefined) [SEMUSTINE] the “IC50 of cell viability” value was over 46 µM.
For CC1=C(C)C(=O)C(C(CCCCCC(=O)O)c2ccccc2)=C(C)C1=O (centres undefined) [SERATRODAST], the “IC50 of cell viability” value was over 46 µM.
